One block for each compound: values may come before it.
Key:
[1] = molecular target: T1, es nucleoside transporter (Mus musculus, UniProt Q9JIM1); test: [3H]NBMPR equilibrium binding to L1210/B23.1 cells and its inhibition by SAENTA-fluorescein probes; details: 22°; for Ki: replots of Kd(app)/Bmax versus [probe], read-out: Ki (mean ± S.D.)
T1 construct: endogenous in cells; host or cells: L1210/B23.1 mouse leukemia cells
T1 sequence (Q9JIM1 1-460): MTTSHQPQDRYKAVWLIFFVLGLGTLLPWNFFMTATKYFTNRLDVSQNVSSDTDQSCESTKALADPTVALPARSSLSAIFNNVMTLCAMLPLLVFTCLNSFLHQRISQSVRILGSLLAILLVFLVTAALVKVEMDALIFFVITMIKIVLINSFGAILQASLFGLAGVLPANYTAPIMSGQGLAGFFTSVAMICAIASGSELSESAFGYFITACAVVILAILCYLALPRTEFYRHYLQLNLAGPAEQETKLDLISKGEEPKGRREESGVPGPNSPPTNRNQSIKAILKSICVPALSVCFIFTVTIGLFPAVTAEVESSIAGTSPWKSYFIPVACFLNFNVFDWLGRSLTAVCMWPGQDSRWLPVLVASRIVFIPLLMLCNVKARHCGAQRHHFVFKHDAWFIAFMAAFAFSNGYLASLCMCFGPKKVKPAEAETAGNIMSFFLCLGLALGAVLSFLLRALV

[2] = molecular target: T2, es nucleoside transporter (Sus scrofa, UniProt A0A287B2T6); test: Inhibition of site-specific [3H]NBMPR binding to unsealed pig erythrocyte ghosts; details: for IC50: 2 nM [3H]NBMPR, 20 min, 22° C., pH 7.4, read-out: IC50 for inhibition of site-bound [3H]NBMPR; for inhibition of NBMPR binding to the nucleoside transporter: result in words
T2 construct: immediately processed by conventional methods for recovery of erythrocytes; tissue Gainers, Edmonton, Alberta, Canada (blood of domestic pigs); host or cells: pig erythrocytes, unsealed ghosts
T2 sequence (A0A287B2T6 1-457): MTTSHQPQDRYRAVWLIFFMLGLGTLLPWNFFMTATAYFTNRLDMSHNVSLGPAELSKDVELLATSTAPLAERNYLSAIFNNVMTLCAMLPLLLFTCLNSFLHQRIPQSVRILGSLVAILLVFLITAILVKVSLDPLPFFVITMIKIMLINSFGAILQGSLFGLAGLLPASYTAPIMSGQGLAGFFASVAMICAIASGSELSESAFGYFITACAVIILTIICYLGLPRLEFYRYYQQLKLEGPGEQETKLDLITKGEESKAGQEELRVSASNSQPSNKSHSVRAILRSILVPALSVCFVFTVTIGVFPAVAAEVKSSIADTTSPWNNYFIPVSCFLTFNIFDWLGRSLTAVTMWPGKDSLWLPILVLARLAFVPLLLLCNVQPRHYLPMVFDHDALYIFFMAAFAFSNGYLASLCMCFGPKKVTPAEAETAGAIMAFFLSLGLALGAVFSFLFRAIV
Procedure: Blood from adult domestic pigs (Gainers, Edmonton, Alberta, Canada) was collected into 0.2 vol. of anticoagulant solution (90 mM-sodium citrate/16 mM-citric acid/16 mM-monosodium phosphate/2 mM-adenine/12 mM-inosine) and immediately processed by conventional methods for recovery of erythrocytes.
Unsealed ghosts were prepared at 4° C. by the procedure of Steck & Kant, (1974), Methods in Enzymology, vol. 31, pp. 172-180, modified by the inclusion of 0.1 mM phenylmethane sulphonyl fluoride, and stored at -70° C.
NBMPR was prepared as described by Paul, Chen & Paterson (1975), J. Med Chem., vol. 18, pp. 968-973. [G-^3 H]NBMPR (23 Ci/mmol), obtained from Moravek Biochemicals, Brea, CA., U.S.A., was purified by using a Spheri-10 RP18 100 mm×4.6 mm column (Brownlee Labs, Santa Clara, CA,. U.S.A.), eluted with a methanol/water gradient.
Binding to unsealed ghosts was determined by a filtration assay, as described by Agbanyo, Cass & Paterson (1988) Mol. Pharmacol., vol. 33, pp. 332-337. Assay mixtures (final volume, 1.2 ml; two samples per condition) contained 2 nM-[^3 H]NBMPR, graded concentrations of test compound and unsealed ghosts (10 μg of protein/ml) in 5 mM-sodium phosphate buffer, pH 7.4, at 22° C., and, for determination of non-specific binding, 5 μM non-radioactive NBMPR was present. After a 20 min incubation at 22° C., membrane material from 1 ml portions of assay mixtures was collected by vacuum filtration on Whatman GF/C microfibre filters, which were then rapidly washed three times with 2 ml portions of ice-cold 5 mM-sodium phosphate buffer. The filters were placed in scintillation vials and assayed for radioactivity after a 16 h incubation in 8 ml of Triton X-100-based scintillation fluid as described by Pande (1976) Anal. Biochem., vol. 74, pp. 25-34. Protein was determined by the bicinchoninic acid method of Smith et al. (1985) Anal. Biochem., vol. 150, pp. 76-85.
Correction for non-specific binding was determined by performing the assay in the presence of 5 μM-non radioactive NBMPR. Replicate mixtures contained ghosts, 2 nM-[^3 H]NBMPR, graded concentrations of SAENTA or acetyl SAENTA (prepared as in Example 1) and, in mixtures used for non-specific binding, 5 μM-non radioactive NBMPR. Values for [^3 H]NBMPR specifically bound in the presence of inhibitor are expressed as percentages of that bound in its absence.
IC50 values were determined from plots of % site-bound NBMPR in presence of test compound against concentration of test compound.

[3] = molecular target: T1, es nucleoside transporter; test: Flow cytometric staining of L1210/B23.1 cells (es nucleoside transporter-expressing) by SAENTA-fluorescein probe; type: cell-based; details: 40 nM 5-(SAENTA-X2)-fluorescein, 10 min, 4° C., pH 8.0, FIG. 8
Procedure: Flow cytometric measurements of binding of .[.SAENTA-x2 -fluorescein.]. .Iadd.SAENTA-X2-fluorescein .Iaddend.prepared as in Example 3 was carried out as in Example 4 using two clonal lines of cultured mouse leukemia L 1210 cells, L 1210/B23.1 and L 1210/MA-27.1. L 1210/B23.1 expresses NBMPR binding sites and nuclesoside transporter activity whereas L 1210/MA-27.1 cells lack both of these features.
Staining conditions were chosen to minimise non-specific fluorescence signals from L 1210/MA-27.1 cells treated with the nucleoside.
Cells were exposed for 10 min at 4° C. to phosphate-buffered (pH 8.0) salts medium containing 40 nM .[.5(SAENTA-xx2)fluorescein.]. .Iadd.5-(SAENTA-X2)-fluorescein .Iaddend.prior to flow cytometric analysis in a BD FACSan instrument; 10^5 cells were analysed. Cells in replicate assay mixtures were also exposed for 5 min at 22° C. to medium containing 10 μM NBMPR and then for 10 min at 4° C. to medium containing both NBMPR and .[.5-SAENTA-x2)-fluorescein.]. .Iadd.5-(SAENTA-X2)-fluorescein.Iaddend..
(a) Clonal lines of mouse leukemia cells were exposed for 10 min at 4° C. to phosphate buffered (pH 8.0) saline containing […] .[.5-(SAENTA-x2)-fluorescein.]. .Iadd.5-(SAENTA-X2)-fluorescein .Iaddend.(prepared as in Example 3) prior to flow cytometric analysis in a BD FACScan instrument; 10^4 cells were analysed. Cells in replicate mixtures were also exposed for 5 min at 22° C. to medium containing 10 μM NBMPR and then for 10 min at 4° C. to medium containing both NBMPR and .[.5-(SAENTA-x2)-fluorescein.]. .Iadd.5-(SAENTA-X2)-fluorescein.Iaddend.. L 1210/B23.1 cells express the es nucleoside transport system whereas L 1210/MA-27.1 cells lack that activity.

nucleoside transporter [4] = molecular target: T3, nucleoside transporter (Homo sapiens, UniProt Q99808); test: Inhibition of [3H]cytosine arabinoside (araC) influx in RC2a leukaemic cells; type: cell-based
T3 construct: The human leukaemic cell line RC2a, of myelomonocytic origin; endogenous in cells; host or cells: RC2a human leukaemic (myelomonocytic) cells
T3 sequence (Q99808 1-456): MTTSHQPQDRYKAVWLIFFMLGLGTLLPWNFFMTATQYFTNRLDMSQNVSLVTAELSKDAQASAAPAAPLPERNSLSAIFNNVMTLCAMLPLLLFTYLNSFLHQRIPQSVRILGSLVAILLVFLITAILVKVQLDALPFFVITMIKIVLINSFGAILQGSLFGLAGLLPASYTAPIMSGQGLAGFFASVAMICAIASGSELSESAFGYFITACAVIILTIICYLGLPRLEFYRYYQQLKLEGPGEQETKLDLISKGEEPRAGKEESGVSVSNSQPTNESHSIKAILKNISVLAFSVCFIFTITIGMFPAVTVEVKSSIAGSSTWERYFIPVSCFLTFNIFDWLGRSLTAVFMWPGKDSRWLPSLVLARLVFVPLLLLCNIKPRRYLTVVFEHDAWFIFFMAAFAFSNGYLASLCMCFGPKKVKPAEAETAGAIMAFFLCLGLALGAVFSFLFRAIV
Procedure: . Unlabelled NBMPR was supplied by Sigma (St. Louis, MO, U.S.A.). [^3 H]Cytosine arabinoside (araC) and [^14 C]polyethylene glycol were obtained from Amersham, Buckinghamshire, England. Dilazep was a gift from Roche, Dee Why, Australia. Incubations were carried out using imidazole-buffered saline (IBS; […], 5 mM KCl, 5 mM imidazole-Cl, 1 mM MgCl2 and 5 mM glucose, pH 7.4).
The human leukaemic cell line RC2a, of myelomonocytic origin (Bradley et al., 1982 Brit. J. Haematol., vol. 51, pp. 595-604) was maintained in RPMI 1640 medium containing 10% foetal calf serum, 2 mM glutamine, 20 mM HEPES (pH 7.4) (Flow Laboratories, Sydney, Australia) and 20 mg/l gentamycin sulphate (Roussell, Castle Hill, Australia). Cell densities were maintained below 5×10^5 /ml. Cells were collected by centrifugation and resuspended in buffered saline for assays.
Prior to measurement of [^3 H]araC uptake, RC2a leukaemic cells were treated at 20° C. for 10 min with graded concentrations (0-0.05 μM) of .[.SAENTA-x2 -fluorescein.]. .Iadd.SAENTA-X2-fluorescein .Iaddend.prepared as in Example 3. Treated cells (100 μl, 5×10^7 cells/ml) were added to [^3 H]araC (100 μl) in IBS medium in 1.5 ml centrifuge tubes to give a final araC concentration of 50 μM. [^3 H]araC uptake was ended 20 sec. later by the addition of 800 μl of ice-cold dilazep (750 μM) (Jamieson et al., 1989). Phthalate oil was added immediately and the tube spun at 8000 g for 2 min. Medium above the oil was aspirated, the tube walls washed, and the oil above the cell pellet removed. Pellets were solubilized using 0.5M NaOH and the [^3 H]araC contents were measured by liquid scintillation counting. […]
The ability of .[.SAENTA-x2 -fluorescein.]. .Iadd.SAENTA-X2-fluorescein .Iaddend.to inhibit influx of nucleoside was assessed in cultured RC2a leukaemic cells by treating the cells for 10 min with graded concentrations of .[.SAENTA-x2 -fluorescein.]. .Iadd.SAENTA-X2-fluorescein .Iaddend.(0 to 0.25 μM). Uptake rates of araC (50 μM) were then determined over 20 s at 20° C. as described above.

nucleoside transporter [5] = molecular target: T3, nucleoside transporter; test: Equilibrium binding of SAENTA-fluorescein probe to RC2a cells by flow cytometry, with displacement by NBMPR or dilazep
nucleoside transporter [6] = molecular target: T3, nucleoside transporter; test: Inhibition of [3H]NBMPR binding to RC2a leukaemic cells; details: 30 min, 37° C., FIG. 5; read-out: half-maximal inhibition of site-specific [3H]NBMPR binding
Procedure: [^3 H]NBMPR from Moravek Biochemicals Brea, CA, U.S.A. was purified by reverse phase HPLC using methanol-water as solvent. Unlabelled NBMPR was supplied by Sigma (St. Louis, MO, U.S.A.). [^3 H]Cytosine arabinoside (araC) and [^14 C]polyethylene glycol were obtained from Amersham, Buckinghamshire, England. Dilazep was a gift from Roche, Dee Why, Australia.
The free [^3 H]NBMPR concentration in the medium above the oil was also measured. Non-specific binding of [^3 H]NBMPR was measured in parallel incubations of cells treated for 5 min at 37° C. with 5 μM NBMPR before the addition of [^3 H]NBMPR. Specific binding was calculated by subtracting the amount of non-specific binding (determined in the presence of 5 μM unlabelled NBMPR) from total [^3 ]NBMPR binding in all analyses.

IC50 [2]: 330 nM
inhibition of NBMPR binding to the nucleoside transporter [2]: strong inhibition
SMILES: NCCSC[C@H]1O[C@@H](n2cnc3c(NCc4ccc([N+](=O)[O-])cc4)ncnc32)[C@H](O)[C@@H]1O [SAENTA, 5'-S-(2-aminoethyl)-6-N-(4-nitrobenzyl)-5'-thioadenosine]

distinction of L1210/B23.1 from L1210/MA-27.1 cells by cell staining [3]: able to distinguish clearly
IC50 (nucleoside transporter [4]; 50 μM araC, 20° C., 10 min pretreatment): ~40 nM
inhibition of influx of [3H]araC (nucleoside transporter [4]; 50 μM araC, 20° C., 10 min exposure to 0.25 μM probe): 90%
EC50 (nucleoside transporter [5]; RC2a cells 1×10^5/ml, room temperature, n=3, ±1 SD, FIG. 7, read-out: concentration giving half-maximal binding (NBMPR-sensitive)): 6.2 ± 1 nM
time to equilibrium of cell bound fluorescence (nucleoside transporter [5]; all ligand concentrations, room temperature): 10 min
time to equilibrium between bound and free probe (nucleoside transporter [5]; lowest ligand concentration, room temperature): 10 min
IC50 (nucleoside transporter [6]): 50 to 100 nM
SMILES: O=C(O)c1cc(NC(=S)NCCSC[C@H]2O[C@@H](n3cnc4c(NCc5ccc([N+](=O)[O-])cc5)ncnc43)[C@H](O)[C@@H]2O)ccc1-c1c2ccc(=O)cc-2oc2cc(O)ccc12 [SAENTA-X2-fluorescein]

IC50 [2]: 76 nM
inhibition of NBMPR binding to the nucleoside transporter [2]: strong inhibition
SMILES: CC(=O)NCCSC[C@H]1O[C@@H](n2cnc3c(NCc4ccc([N+](=O)[O-])cc4)ncnc32)[C@H](O)[C@@H]1O [acetyl SAENTA]

displacement of SAENTA-X2-fluorescein binding (nucleoside transporter [5]; 2 μM dilazep versus 1 μM NBMPR): as effective as NBMPR
SMILES: COc1cc(C(=O)OCCCN2CCCN(CCCOC(=O)c3cc(OC)c(OC)c(OC)c3)CC2)cc(OC)c1OC [dilazep, reference compound]
effectiveness in stopping araC influx (nucleoside transporter [4]; dilazep added to cells prior to [3H]araC): effectiveness of dilazep in stopping influx was confirmed

Continued, compound first:

SMILES: O=C(CCCCCNC(=O)c1ccc2c(c1)C(=O)OC21c2ccc(O)cc2Oc2cc(O)ccc21)NCCSC[C@H]1O[C@@H](n2cnc3c(NCc4ccc([N+](=O)[O-])cc4)ncnc32)[C@H](O)[C@@H]1O [5-(SAENTA-X8)-fluorescein, 5'-S-[2-(6-(Fluorescein-5-carboxamido)hexanoylamino)ethyl]-N^6-(4-nitrobenzyl)-5'-thioadenosine]
Ki [1]: 0.8 ± 0.21 nM

SMILES: O=C1OC2(c3ccc(O)cc3Oc3cc(O)ccc32)c2cc(NC(=S)NCCSC[C@H]3O[C@@H](n4cnc5c(NCc6ccc([N+](=O)[O-])cc6)ncnc54)[C@H](O)[C@@H]3O)ccc21 [6-(SAENTA-X2)-fluorescein]
Ki [1]: 9.9 ± 2.8 nM

SMILES: O=C(CCCCCNC(=O)c1ccc2c(c1)C1(OC2=O)c2ccc(O)cc2Oc2cc(O)ccc21)NCCSC[C@H]1O[C@@H](n2cnc3c(NCc4ccc([N+](=O)[O-])cc4)ncnc32)[C@H](O)[C@@H]1O [6-(SAENTA-X8)-fluorescein, 5'-S-[2-(6-(Fluorescein-6-carboxamido)hexanoylamino)ethyl]-N^6-(4-nitrobenzyl)-5'-thioadenosine]
Ki [1]: 1.7 ± 0.5 nM

SMILES: O=[N+]([O-])c1ccc(CSc2ncnc3c2ncn3C2OC(CO)C(O)C2O)cc1 (centres unmarked) [NBMPR, nitrobenzyl thioinosine, reference compound]
Kd ([1]; Scatchard analysis (LIGAND)): 0.085 ± 0.015 nM

Source: patent USRE35904E, “Method and probes for detecting nucleoside transporter and method for producing the probes” (Governors of the University of Alberta, priority 1995, dated 1998)
